# Measured values as given in ChEMBL document CHEMBL1201862, “PubChem BioAssay data set” (2004).
#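 Test compounds were applied to cells in 96-well plates for 48 hours at 5 doses. GI50 = concentration required for 50% inhibition of growth.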 Calls of active or inactive are those of the source. Cut-off read from the data, not from the text of the source: active = GI50 up to about 1.1 µM and inactive = higher.
# Assays:
# Test in all cases: NCI-60 cell line screen, 48 h
# DMS-114 = test system: DMS-114
# ACHN = test system: ACHN
# KM-20L2 = test system: KM-20L2
# 786-0 = test system: 786-0
# A549 = test system: A549
# HCT-116 = test system: HCT-116
# NCI-H226 = test system: NCI-H226
# LXFL 529 = test system: LXFL 529
# SF-539 = test system: SF-539
# SNB-75 = test system: SNB-75
# A498 = test system: A498
# OVCAR-3 = test system: OVCAR-3
# DMS-273 = test system: DMS-273
# UO-31 = test system: UO-31
# OVCAR-8 = test system: OVCAR-8
# OVCAR-5 = test system: OVCAR-5
# DLD-1 = test system: DLD-1
# HCT-15 = test system: HCT-15
# HOP-92 = test system: HOP-92
# EKVX = test system: EKVX
# SK-MEL-2 = test system: SK-MEL-2
# SR = test system: SR
# HCC 2998 = test system: HCC 2998
# RPMI-8226 = test system: RPMI-8226
# HOP-62 = test system: HOP-62
# SNB-19 = test system: SNB-19
# SK-MEL-5 = test system: SK-MEL-5
# SF-268 = test system: SF-268
# KM12 = test system: KM12
# M19-MEL = test system: M19-MEL
# NCI-H522 = test system: NCI-H522
# COLO 205 = test system: COLO 205
# K562 = test system: K562
# CAKI-1 = test system: CAKI-1
# SNB-78 = test system: SNB-78
# XF498 = test system: XF498
# LOX IMVI = test system: LOX IMVI
# Malme-3M = test system: Malme-3M
# UACC-257 = test system: UACC-257
# UACC-62 = test system: UACC-62
# M14 = test system: M14
# U-251 = test system: U-251
# MOLT-4 = test system: MOLT-4
# NCI-H23 = test system: NCI-H23
# NCI-H460 = test system: NCI-H460
# OVCAR-4 = test system: OVCAR-4
# HL-60 = test system: HL-60
# CCRF-CEM = test system: CCRF-CEM
# SK-MEL-28 = test system: SK-MEL-28
# SN12C = test system: SN12C
# SW-620 = test system: SW-620
# TK-10 = test system: TK-10
smiles,measurement,setting,value
CC(C)OP(=O)(OC(C)C)/C(=N/Nc1ccc([N+](=O)[O-])cc1)NCCO,GI50,DMS-114,90.6 µM (inactive)
same,GI50,ACHN,54.1 µM (inactive)
same,GI50,KM-20L2,85.7 µM (inactive)
same,GI50,786-0,> 100 µM (inactive)
same,GI50,A549,74.8 µM (inactive)
same,GI50,HCT-116,> 100 µM (inactive)
same,GI50,NCI-H226,> 100 µM (inactive)
same,GI50,LXFL 529,38.4 µM (inactive)
same,GI50,SF-539,> 100 µM (inactive)
same,GI50,SNB-75,> 100 µM (inactive)
same,GI50,A498,3.15 µM (inactive)
same,GI50,OVCAR-3,> 100 µM (inactive)
same,GI50,DMS-273,> 100 µM (inactive)
same,GI50,UO-31,> 100 µM (inactive)
same,GI50,OVCAR-8,> 100 µM (inactive)
same,GI50,OVCAR-5,> 100 µM (inactive)
same,GI50,DLD-1,> 100 µM (inactive)
same,GI50,HCT-15,72.8 µM
same,GI50,HOP-92,64.1 µM (inactive)
same,GI50,EKVX,> 100 µM (inactive)
same,GI50,SK-MEL-2,> 100 µM (inactive)
same,GI50,SR,> 100 µM (inactive)
same,GI50,HCC 2998,> 100 µM (inactive)
same,GI50,RPMI-8226,> 100 µM (inactive)
same,GI50,HOP-62,> 100 µM (inactive)
same,GI50,SNB-19,> 100 µM (inactive)
same,GI50,SK-MEL-5,> 100 µM (inactive)
same,GI50,SF-268,> 100 µM (inactive)
same,GI50,KM12,> 100 µM (inactive)
same,GI50,M19-MEL,> 100 µM (inactive)
same,GI50,NCI-H522,> 100 µM (inactive)
same,GI50,COLO 205,> 100 µM (inactive)
same,GI50,K562,71.8 µM (inactive)
same,GI50,CAKI-1,> 100 µM (inactive)
same,GI50,SNB-78,99.8 µM (inactive)
same,GI50,XF498,> 100 µM (inactive)
same,GI50,LOX IMVI,56.1 µM (inactive)
same,GI50,Malme-3M,> 100 µM (inactive)
same,GI50,UACC-257,> 100 µM (inactive)
same,GI50,UACC-62,26.2 µM (inactive)
same,GI50,M14,> 100 µM (inactive)
same,GI50,U-251,> 100 µM (inactive)
same,GI50,MOLT-4,48.9 µM (inactive)
same,GI50,NCI-H23,> 100 µM (inactive)
same,GI50,NCI-H460,> 100 µM (inactive)
same,GI50,OVCAR-4,> 100 µM (inactive)
same,GI50,HL-60,42.7 µM (inactive)
same,GI50,CCRF-CEM,> 100 µM (inactive)
same,GI50,SK-MEL-28,> 100 µM (inactive)
same,GI50,SN12C,> 100 µM (inactive)
same,GI50,SW-620,> 100 µM (inactive)
same,GI50,TK-10,> 100 µM (inactive)
